In patent US20260183295A1, “METHODS AND COMPOSITIONS FOR TREATING CANCER” (Onconova Therapeutics, Inc., priority 2022, published 2026):

What was measured:
[1] = tested on: Caspase 3; assay: Western blot, MDA-MB-231 cells, 24 hours; format: cell-based; conditions: 2.5, 5, 10 μM, versus Comparator 1, 2 and 4
[2] = tested on: PyMT cells; assay: Growth and recovery, 6 days treatment and 4 days recovery, cell counts; format: cell-based, mouse; conditions: 6 days treatment, counted on days 0, 3, 6, 10
Source text: Following 6 days of treatment, the drug treatments were stopped and the cells allowed to recover for 4 days. Cell numbers were counted on days 0, 3, 6, and 10, and the results plotted.

SMILES: CN1CCN(c2ccc(Nc3ncc4cc(C#N)c(=O)n(C5CCCC5)c4n3)cc2)CC1 [Compound 1, 8-cyclopentyl-2-((4-(4-methylpiperazin-1-yl)phenyl)amino)-7-oxo-7,8-dihydropyrido[2,3-d]pyrimidine-6-carbonitrile]
- Caspase 3 levels [1]: decreasing
- PyMT cell numbers, treatment and recovery phase [2]: small decrease in cell number at day 3 that then increased throughout the rest of the experiment
